Experimental data reported in ChEMBL document CHEMBL5357080, “Redefining Neurodegenerative Treatment: Synergy of KEAP1, PROTACs, and Inflammatory Modulators” (ACS Med Chem Lett, 2024).

Molecular target: Bromodomain-containing protein 4 (Homo sapiens) (UniProt O60885)
Test: Induction of degradation of BRD4 in human MDA-MB-468 cells at 0.01 uM measured after 24 to 48 hrs by densitometry analysis relative to control
Format: cell-based
Settings: time lower […], time upper […]

Activity: 75%
Compound: Cc1sc2c(c1C)C(c1ccc(Cl)cc1)=N[C@@H](CC(=O)NCC(=O)NCCn1nnc(COc3ccc(Cl)c4c3[C@@H](CN3CC5(CC5)CC3=O)N(C(=O)[C@@H]3CCCC[C@]3(C)C(=O)O)CC4)c1C)c1nnc(C)n1-2
